Measured values as given in patent US20240207219A1, “Artemisia anti-bacterial compositions and methods of use for inhibition of cells of Mycobacterium species” (priority 2022, published 2024).

Experiments:
[1] = system: Mtb in hypoxia-induced growth arrest; test: Bactericidal activity of HAB9 in hypoxic growth conditions (variation of the Wayne model)
aerobically growing Mtb = settings: aerobic growth
Mtb = settings: in vitro; cited from earlier work

SMILES	bactericidal activity in hypoxia-induced growth arrest ([1]; hypoxic, non-replicating Mtb)	anti-mycobacterial activity in limiting oxygen compared to aerobically grown cells ([1]; limiting oxygen versus aerobic)	bactericidal activity against aerobically growing Mtb (aerobically growing Mtb)	activity against Mtb under nutrient starvation or progressive oxygen depletion (Mtb)
COc1ccc(-c2cc(=O)c3c(O)cc(OC)cc3o2)cc1 [Compound 1, 5-hydroxy-7-methoxy-2-(4-methoxyphenyl)chromen-4-one]	substantially reduced viable cultures of Mtb	enhanced	substantially reduced viable cultures of Mtb	–
NNC(=O)c1ccncc1 [isoniazid]	–	–	–	little or no activity
